Reference: patent US4927819A, “Cyclo-octane neuroprotective agents” (Merck Sharp & Dohme Limited, priority 1987, dated 1990)
Counter-ions that a name gives are not always drawn.

Tests used:
[1] = tested on: responses to NMDA in rat cortical slice; assay: Rat cortical slice: antagonism of responses to NMDA; type: cell-based; conditions: from righthand shift in NMDA concentration-response curve, read-out: apparent equilibrium constant (Kb)
Experimental: The effects of compounds of the invention on responses to NMDA were assessed using the rat cortical slice as described by Wong et al., Proc. Natl. Acad. Sci. USA, 1986, 83, 7104. The apparent equilibrium constant (Kb) was calculated from the righthand shift in the NMDA concentration-response curve produced by the compound under test.

[2] = tested on: tonic seizures induced by N-methyl-DL-aspartic acid (NMDLA) in male Swiss-Webster mice; assay: Antagonism of NMDLA-induced tonic seizures in mice; type: in vivo, mouse (Swiss-Webster); conditions: iv; mouse, i.v. test compound 15 min before s.c. NMDLA 500 mg/kg; observed 30 min; probit analysis
Experimental: Compounds of the invention were examined for their ability to antagonise tonic seizures induced by N-methyl-DL-aspartic acid (NMDLA). Groups of 8 male Swiss-Webster mice (25 to 30 g) were injected intravenously with the test compound at various doses, 15 min before s.c. administration of NMDLA (500 mg/kg). […] ED50 values for the antagonism of the NMDLA induced tonic seizures were determined using probit analysis.

SMILES	Kb [1] [µM]	ED50 [2] [mg/kg]
COc1ccc2c(c1)CC1NC(C)(C2)c2ccccc21 (stereo not drawn) [Example 12, 2-Methoxy-6-methyl-5,6,11,12-tetrahydrodibenzo [a,e]cycloocten-6,11-imine hydrochloride]	< 2	–
CC12Cc3ccccc3CC(O)(N1)c1ccccc12 (stereo not drawn) [Example 15, 11-Hydroxy-6-methyl-5,6,11,12-tetrahydrodibenzo[a,e]cycloocten-6,11-imine hydrochloride]	–	< 5
CC12Cc3ccc(Br)cc3CC(N1)c1ccccc12 (stereo not drawn) [Example 3, 2-Bromo-6-methyl-5,6,11,12-tetrahydrodibenzo[a,e]cycloocten-6.11-imine hydrochloride]	–	< 5
CC12Cc3ccc(O)cc3CC(N1)c1ccccc12 (stereo not drawn) [Example 13, 2-Hvdroxy-6-methyl-5,6,11,12-tetrahydrodibenzo[a,e]cycloocten-6.11-imine hydrochloride]	< 2	–
CC12Cc3ccccc3CC(N1)c1ccccc12 (stereo not drawn) [Example 1, 6-Methyl-5,6,11,12-tetrahydrodibenzo[a,e]cycloocten-6,11-imine Hydrochloride]	–	< 5
CC12Cc3ccccc3CC(C)(N1)c1ccccc12 [Example 16, 6,11-Dimethyl-5,6,11,12-tetrahydrodibenzo[a,e]cycloocten-6,11-imine hydrochloride]	–	< 5
